The record followed here is patent publication US20250049676A1, “ANTIMICROBIAL SYSTEM WITH INDOLE ALKALOID AND PHENOLIC ACID AND COMPOSITIONS COMPRISING THEM” (Conopco, Inc., d/b/a UNILEVER, priority 2021, published 2025).

Read-outs that look alike come from different tables or passages of the source.

Test [1] relates to Enterobacter gergoviae ATCC 33028. As to the kind of experiment: Liquid broth assay (MIC and checkerboard), Enterobacter gergoviae. In kind it is cell-based. Particulars: for MIC: Pluralibacter gergoviae, read-out: minimal inhibitory concentration (MIC); for concentration needed in combination to achieve the inhibitory effect: gramine with syringic acid, concentration of the named component in the mixture. An excerpt:
(§1) Naturally derived antimicrobial systems were made, as shown below by combining the indole alkaloid and phenolic acid. Two pools were set up and each pool contained 1 organism. The strains involved were Enterobacter gergoviae ATCC 33028 of the family Pluralibacter gergoviae, a Gram-negative and Aspergillus brasiliensis ATCC 16404. FIC test range was 16 times greater than the projected MIC for each sample.
(§2) The differing behaviors of inhibitory antimicrobials in isolation and mixtures have been widely explored using the concept of the Fractional Concentration and Fractional Inhibitory Concentration (FIC). See for instance JRW Lambert and R Lambert, J. Appl. Microbiol 95, 734 (2003); T. Jadavji, CG Prober and R Cheung, Antibacterial Agents and Chemotherapy 26, 91 (1984), and WO 2004/006876. MIC is the minimum inhibitory concentration a component prevents visible growth of a microbe. The FC and FIC parameters can be defined as follows:
(§3) FC (Component A)=Concentration of Component A tested in the mixture/MIC (Component A tested as a single active)
(§4) FIC (component a)=MIC (component a tested in the mixture)/MIC (component a tested as a single active)
(§5) The interactions between antimicrobials can be additive, synergistic or possibly antagonistic depending on whether the efficacy of the combination is equivalent to, greater than or less than that obtained for the same total concentration of the individual components when tested alone. These relationships can be expressed mathematically by summing the fractional MIC values for all the components present in the mixture to give the “fractional inhibitory index”:
(§6) Such that: • ΣFIC greater than 0.5 corresponds to indifferent, additive or antagonistic activity • ΣFIC less than or equal to 0.5 corresponds to synergistic activity
(§7) Liquid broth assays (MIC and checkerboard) were conducted to identify the minimum concentration(s) of individual and binary combinations of natural preservation materials. A modified methodology to ISO 20776-1:2006 was utilized for the screening as follows. Stock solutions of each preservation chemical at 200 ul/cell (or well) each and 100 ul of broth were created in separate 96-well plates. Each of the two-preservation chemical/broth mixes was then combined in a third 96 well plate at varying concentrations and then inoculated with 1-5×10^6 microorganisms and incubated at 30° C. for 24 hours, after which optical densities at OD600 nm were measured.

For test [2], the system named is Aspergillus brasiliensis ATCC 16404. The experiment in a line: Liquid broth assay (MIC and checkerboard), Aspergillus brasiliensis. The test is classed as cell-based. Particulars: for MIC: Aspergillus brasiliensis; for concentration needed in combination to achieve the inhibitory effect: gramine with syringic acid, concentration of the named component in the mixture.
Excerpt: as §1, §2, §3, §4, §5, §6, §7

As for `CN(C)Cc1c[nH]c2ccccc12` [Gramine, 1-(1H-Indol-3-yl)-N,N-dimethylmethanamine], the MIC in test [1] (ATCC33028, component by itself, MIC = <25% growth vs positive control, 30° C., 24 hours, OD600) worked out at 6.25 mg/mL; in test [2] (ATCC16404, component by itself, MIC = <25% growth vs positive control, 30° C., 24 hours, OD600, read-out: MIC), 12.5 mg/mL. Further, the “concentration needed in combination to achieve the inhibitory effect” value in test [1] is 0.098 mg/mL; in test [2], 1,563 mg/ml.

For the molecule `COc1cc(C(=O)O)cc(OC)c1O` [Syringic Acid, 4-Hydroxy-3,5-dimethoxybenzoic acid], the MIC in test [1] (ATCC33028, 24 h) is above 50 mg/mL; in test [2] (ATCC16404, 24 h) it was above 50 mg/mL. For the same molecule, the “concentration needed in combination to achieve the inhibitory effect” value in test [1] came to 0.781 mg/mL; in test [2] it was 6.25 mg/mL.
